Laboratory results: patent publication US7964620B2, “Imidazole derivatives” (Hoffmann-La Roche Inc., priority 2003, dated 2011)

Biological target: T1, human mGlu 5a receptor (Homo sapiens, UniProt P41594)
T1 construct: expressed in transfected cells; host or cells: EBNA cells (transient transfection); cell membrane homogenates
Assay: [3H]MPEP competition binding on membranes of EBNA cells transiently transfected with human mGlu 5a receptor
Conditions: competition with 2 nM [3H]MPEP, 1 h at 4° C., Ki=IC50/[1+L/Kd]
Procedure: For binding experiments, cDNA encoding human mGlu 5a receptor was transiently trans-fected into EBNA cells using a procedure described by Schlaeger and Christensen [Cyto-technology 15:1-13 (1998)]. Cell membrane homogenates were stored at −80° C. until the day of assay where upon they were thawed and resuspended and polytronized in 15 mM Tris-HCl, 120 mM NaCl, 100 mM KCl, 25 mM CaCl2, 25 mM MgCl2 binding buffer at pH 7.4 to a final assay concentration of 20 μg protein/well.
Saturation isotherms were determined by addition of twelve [^3H]MPEP concentrations (0.04-100 nM) to these membranes (in a total volume of 200 μl) for 1 h at 4° C. Competition experiments were performed with a fixed concentration of [^3H]MPEP (2 nM) and IC50 values of test compounds evaluated using 11 concentrations (0.3-10,000 nM). Incubations were performed for 1 h at 4° C.
At the end of the incubation, membranes were filtered onto unifilter (96-well white microplate with bonded GF/C filter preincubated 1 h in 0.1% PEI in wash buffer, Packard BioScience, Meriden, Conn.) with a Filtermate 96 harvester (Packard BioScience) and washed 3 times with cold 50 mM Tris-HCl, pH 7.4 buffer. Nonspecific binding was measured in the presence of 10 μM MPEP. The radioactivity on the filter was counted (3 min) on a Packard Top-count microplate scintillation counter with quenching correction after addition of 45 μl of microscint 40 (Can berra Packard S. A., Zürich, Switzerland) and shaking for 20 min. For functional assays, [Ca^2+]i measurements were performed as described previously by Porter et al. [Br. J. Pharmacol. 128:13-20 (1999)] on recombinant human mGlu 5a receptors in HEK-293 cells. The cells were dye loaded using Fluo 4-AM (obtainable by FLUKA, 0.2 μM final concentration). [Ca^2+]i measurements were performed using a fluorometric imaging plate reader (FLIPR, Molecular Devices Corporation, La Jolla, Calif., USA). Antagonist evaluation was performed following a 5 min preincubation with the test compounds followed by the addition of a submaximal addition of agonist.
The inhibition (antagonists) curves were fitted with a four parameter logistic equation giving IC50, and Hill coefficient using an iterative non linear curve fitting software (Xcel fit). For binding experiments the Ki values of the compounds tested are given. The Ki value is defined by the following formula: Ki=IC50/[1+L/Kd] in which the IC50 values are those concentrations of the compounds tested which cause 50% inhibition of the competing radioligand ([^3H]MPEP). L is the concentration of radioligand used in the binding experiment and the Kd value of the radioligand is empirically determined for each batch of membranes prepared.

T1 sequence (P41594 21-1180 isoform P41594-2 limits assumed): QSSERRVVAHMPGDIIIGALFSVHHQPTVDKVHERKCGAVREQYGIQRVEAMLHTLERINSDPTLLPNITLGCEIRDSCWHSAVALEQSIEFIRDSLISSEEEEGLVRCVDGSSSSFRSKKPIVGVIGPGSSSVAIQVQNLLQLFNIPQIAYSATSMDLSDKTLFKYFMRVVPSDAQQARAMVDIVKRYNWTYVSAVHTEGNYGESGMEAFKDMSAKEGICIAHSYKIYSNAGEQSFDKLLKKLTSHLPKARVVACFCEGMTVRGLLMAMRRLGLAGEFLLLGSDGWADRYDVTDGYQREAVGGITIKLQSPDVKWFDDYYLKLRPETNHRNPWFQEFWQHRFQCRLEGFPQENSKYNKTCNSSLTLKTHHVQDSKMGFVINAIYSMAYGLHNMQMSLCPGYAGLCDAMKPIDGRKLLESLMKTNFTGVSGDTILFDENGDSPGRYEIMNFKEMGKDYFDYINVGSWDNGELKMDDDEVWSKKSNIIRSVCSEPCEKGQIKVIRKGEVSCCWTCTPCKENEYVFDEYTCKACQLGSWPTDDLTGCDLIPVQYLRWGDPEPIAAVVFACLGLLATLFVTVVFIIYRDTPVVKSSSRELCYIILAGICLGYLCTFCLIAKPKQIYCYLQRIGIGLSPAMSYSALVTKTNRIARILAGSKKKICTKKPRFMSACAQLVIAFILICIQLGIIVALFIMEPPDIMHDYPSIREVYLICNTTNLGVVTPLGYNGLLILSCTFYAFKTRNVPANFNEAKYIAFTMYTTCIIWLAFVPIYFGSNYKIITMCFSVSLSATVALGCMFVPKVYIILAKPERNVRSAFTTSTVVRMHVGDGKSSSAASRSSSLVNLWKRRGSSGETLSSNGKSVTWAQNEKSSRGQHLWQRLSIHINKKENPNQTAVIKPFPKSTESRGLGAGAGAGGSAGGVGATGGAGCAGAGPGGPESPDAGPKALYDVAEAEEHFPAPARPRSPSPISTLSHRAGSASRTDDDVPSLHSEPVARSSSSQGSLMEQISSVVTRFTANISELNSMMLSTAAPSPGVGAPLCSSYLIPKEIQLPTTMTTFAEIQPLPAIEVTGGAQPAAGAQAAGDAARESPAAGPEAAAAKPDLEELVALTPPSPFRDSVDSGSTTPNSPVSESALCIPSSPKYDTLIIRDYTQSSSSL

SMILES	Ki [µM]
Cc1nc(C#Cc2cccc(Cl)c2)cn1Cc1ccccn1 [Example 3, 2-[4-(3-Chloro-phenylethynyl)-2-methyl-imidazol-1-ylmethyl]-pyridine]	0.04
Cc1nc(C#Cc2cccc(C#N)c2)cn1Cc1cncc(Cl)c1 [Example 18, 3-[1-(5-Chloro-pyridin-3-ylmethyl)-2-methyl-1H-imidazol-4-ylethynyl]-benzonitrile]	0.094
Cc1cc(C#Cc2cn(CCc3ccccc3)c(C)n2)ccn1 [Example 29, 2-Methyl-4-(2-methyl-1-phenethyl-1H-imidazol-4-ylethynyl)-pyridine]	0.033
Cc1cc(C#Cc2cn(Cc3cccc(C)n3)c(C)n2)ccn1 [Example 4, 4-[1-(6-Methyl-pyridin-2-ylmethyl)-2-methyl-1H-imidazol-4-ylethynyl]-2-methyl-pyridine]	0.093
Cc1cc(C#Cc2cn(C(C)c3ccccc3)c(C)n2)ccn1 (racemic) [Example 23, rac-2-Methyl-4-[2-methyl-1-(1-phenyl-ethyl)-1H-imidazol-4-ylethynyl]-pyridine]	0.077
